{"source": "patent US20230097253A1", "about": "“NOVEL QUINAZOLINE COMPOUND AS THERAPEUTIC AGENT FOR METABOLIC DISORDERS” (BIOWAY., INC, priority 2020, published 2023)", "key": {"[1]": {"tested_on": "steatosis-induced Huh7 cells", "experiment": "Protein expression for verification of multiple mode regulator, with and without AMPK inhibitor (western blot)", "assay_type": "cell-based", "experimental": "(§1) To induce steatosis in Huh-7 cells in each well except for control cells, the Huh-7 cells were treated with PA bound to 2% BSA at a concentration of 250 μM except for the control, and the control cells were pretreated with 2% BSA without FA.\n[…] The control cells and PA treated cells were treated with DMSO. All media were aspirated and the cells were gently washed 3 times with cold PBS.\n(§2) A cold lysis buffer containing 150 mM sodium chloride (NaCl), 5 mM ethylenediaminetetraacetic acid (EDTA), pH 8.0, […] 4-(2-hydroxyethyl)-1-piperazineethanesulfonic acid (HEPES), 1% nonylphenoxypolyethoxylethanol (NP-40), 2 μg/mL aprotinin, 1 μM pepstatin A, 10 μM leupeptin, 1 mM sodium fluoride (NaF), 0.2 mM sodium orthovanadate ([…]), and 1 μM phenylmethylsulfonyl fluoride (PMSF) was added thereto.\nA whole cell lysate was collected and gently pipetted at least 10 times to ensure complete lysis. The sample was incubated on ice for 20 minutes and centrifuged 4° C. at 13,000 rpm, for 20 minutes. The supernatant was collected, 5× sodium dodecyl sulfate (SDS) sample buffer containing 50 mM Tris-CI (pH 6.8), 2% SDS, 0.1% bromopheol blue, and 10% glycerol was added to the sample, and boiled at 95° C. for 5 minutes.\nThe wells of 10% SDS-polyacrylamide gel electrophoresis (SDS-PAGE) were loaded with the same amount of a protein along with the molecular weight marker. The gel was electrophoresed at 100 V for 30 minutes in an electrophoresis chamber (Bio-Rad Laboratories, Hercules, Calif., USA).\nA polyvinylidene fluoride (PVDF) membrane (MilliporeSigma, Burlington, Mass., USA) was activated with methanol (MeOH) for 1 minute and washed with a transfer buffer containing 25 mM Tris, 190 mM glycine, and 20% MeOH. The gel was placed in the transfer buffer for 10 minutes.\nThe transfer sandwich (in the order of paper, gel, membrane, and paper) was assembled and it was checked whether no air bubbles were trapped in the transfer sandwich. […]\n(§3) Images were acquired using an ImageQuant LAS 3000 (Fujifilm, Tokyo, Japan). Data were analyzed."}, "[2]": {"tested_on": "steatosis-induced Huh-7 cells", "experiment": "Expression of fat-oxidation promoting proteins (western blot) compared to existing developed materials", "assay_type": "cell-based", "details": "250 μM PA, BW-3290 0.5, 2.5, 10 μM vs comparators 1 and 10 μM, 24 hours, FIG. 4", "experimental": "as §1\nThe cells in each well were treated with the compounds of the present invention, BW-3290, 0.5 μM, 2.5 μM, and 10 μM, PF-06409577 1 μM and 10 μM, and elafibranor 1 μM and 10 μM, respectively and then cultured for 24 hours. The control cells and PA treated cells were treated with DMSO. All media were aspirated and the cells were gently washed 3 times with cold PBS.\nas §2, with “aprotinin (2 μg/mL),” for “2 μg/mL aprotinin,”\nA whole cell lysate was collected and gently pipetted at least 10 times to ensure complete lysis. The sample was incubated on ice for 20 minutes and centrifuged 4° C. at 13,000 rpm, for 20 minutes. […]\nas §3"}, "[3]": {"experiment": "Pharmacokinetic parameters after oral administration", "assay_type": "in vivo, Sprague Dwaley (SD) rats", "details": "male SD rats, 10 mg/kg, FIG. 16", "experimental": "An experiment was performed to measure the pharmacokinetic parameters of BW-3290 using three male Sprague Dwaley (SD) rats. As for BW-3290, a formulation with a composition of 95% water containing 5% DMSO and 20% HPbCD was used, and was orally administered at a concentration of 10 mg/kg. Blood samples were collected from the jugular vein at time points of 0.25, 0.5, 1, 4, 8, 10, 12, and 24 hours. The blood samples collected were centrifuged for 15 minutes at 4° C. at 2,500×g to secure plasma. Bioanalysis for the measurement of pharmacokinetic parameters was analyzed by LC-MS/MS."}}, "data": [{"smiles": "CC(C)C(Nc1ncnc2nc[nH]c12)c1nc2cccc(Cl)c2c(=O)n1-c1ccccc1", "note": "(centres unmarked) [BW-3290, 2-(1-((7H-purin-6-yl)amino)-2-methylpropyl)-5-chloro-3-phenylquinazolin-4(3H)-one]", "values": [{"measurement": "activity of SIRT1 and AMPK (p-AMPK, p-ACC) when AMPK activity is inhibited", "setting": "[1]; 250 μM PA, 10 μM compound C (AMPK inhibitor), 10 and 20 μM BW-3290, 24 hours, FIG. 15", "value": "increases the activity of SIRT1 and AMPK"}, {"measurement": "AMPK protein expression level", "setting": "[1]; 0.5, 2.5, 10 μM, FIG. 13", "value": "increase in a concentration-dependent manner"}, {"measurement": "SIRT1 protein expression level", "setting": "[1]; 0.5, 2.5, 10 μM, FIG. 13", "value": "increase in a concentration-dependent manner"}, {"measurement": "expression of LCAD (fatty acid oxidation-related protein) compared to PF-064099577 and elafibranor", "setting": "[2]", "value": "same or higher effect of fatty acid degradation"}, {"measurement": "p-ACC expression (inhibition of fat accumulation) compared to PF-064099577 and elafibranor", "setting": "[2]", "value": "same or higher effect of inhibiting fat accumulation"}, {"measurement": "AUClast", "setting": "[3]", "value": "excellent"}, {"measurement": "Cmax", "setting": "[3]", "value": "excellent"}, {"measurement": "concentration after 12 hours after absorption", "setting": "[3]; plasma", "value": "maintained to some extent"}]}]}
